Source: ChEMBL document CHEMBL3885861, “Open TG-GATES”

Species: Rattus norvegicus
Assay: Open TG-GATES - Regimen: Single
Type: toxicity, organism-based, Sprague-Dawley
Set-up: regimen Single, gender Male, age 6 weeks
Details: in vivo, po, 0 mg/kg, route gavage, dose level Control; for APTT / Bas / Eos / Fbg / Ht / Lym / MCH / MCHC / MCV / Mono / Neu / PT / Plat / RBC / Ret / WBC: tissue Blood; for KIDNEY_L / KIDNEY_R / KIDNEY_TOTAL: tissue Kidney; for LIVER: tissue Liver; for ALP / ALT / AST / BUN / CRE / Ca / Cl / DBIL / GLC / IP / K / LDH / Na / PL / RALB / TBIL / TC / TG / TP / gamma-GTP: tissue Plasma

Work on `Cc1cccc(Nc2cc(Cl)nc(SCC(=O)O)n2)c1C` [PIRINIXIC ACID] yielded a TERMINAL_BW (3 h) of 202.9 g, an APTT (3 h) of 15.1 s and a Bas (3 h) of 0%. The Eos (3 h) was 0.4%, the Fbg (3 h) was 280 mg/dL and the Ht (3 h) was 40.2%. It also gave a Lym (3 h) of 77.6%, an MCH (3 h) of 21.5 pg and an MCHC (3 h) of 33.9%. For the same compound, the MCV (3 h) was 63.3 fL, the Mono (3 h) was 2.6% and the Neu (3 h) was 18%. The PT (3 h) was 12.3 s, the Plat (3 h) was 115.3 x10_4/uL and the RBC (3 h) was 636.6 x10_4/ul. The Ret (3 h) was 7.4%, the WBC (3 h) was 78.3 x10_2/uL and the KIDNEY_L (3 h) was 0.9 g. It also gave a KIDNEY_R (3 h) of 0.8 g, a KIDNEY_TOTAL (3 h) of 1.7 g and an LIVER (3 h) of 8.6 g. It also gave an ALP (3 h) of 1509.2 IU/L, an ALT (3 h) of 48.6 IU/L and an AST (3 h) of 77.6 IU/L. The BUN (3 h) was 11 mg/dL, the CRE (3 h) was 0.2 mg/dL and the Ca (3 h) was 10.9 mg/dL. It also gave a Cl (3 h) of 104.8 meq/L, a DBIL (3 h) of 0.036 mg/dL and a GLC (3 h) of 183.6 mg/dL. The IP (3 h) was 10.5 mg/dL, the K (3 h) was 3.8 meq/L and the LDH (3 h) was 91.6 IU/L. It also gave a Na (3 h) of 140 meq/L, a PL (3 h) of 166.4 mg/dL and an RALB (3 h) of 2.6 g/dL. It also gave a TBIL (3 h) of 0.046 mg/dL, a TC (3 h) of 82.8 mg/dL and a TG (3 h) of 121 mg/dL. It also gave a TP (3 h) of 5.6 g/dL, a gamma-GTP (3 h) of 1.2 IU/L and a TERMINAL_BW (6 h) of 201.9 g. The APTT (6 h) was 17.1 s, the Bas (6 h) was 0% and the Eos (6 h) was 0.6%. The Fbg (6 h) was 283.8 mg/dL, the Ht (6 h) was 40.4% and the Lym (6 h) was 73.4%. The MCH (6 h) was 22 pg, the MCHC (6 h) was 34.3% and the MCV (6 h) was 64 fL. It also gave a Mono (6 h) of 2.2%, a Neu (6 h) of 22.8% and a PT (6 h) of 12.2 s. The Plat (6 h) was 115 x10_4/uL, the RBC (6 h) was 630.8 x10_4/ul and the Ret (6 h) was 7.6%. It also gave a WBC (6 h) of 95.9 x10_2/uL, a KIDNEY_L (6 h) of 0.8 g and a KIDNEY_R (6 h) of 0.8 g. For the same compound, the KIDNEY_TOTAL (6 h) was 1.7 g, the LIVER (6 h) was 8 g and the ALP (6 h) was 1969 IU/L. It also gave an ALT (6 h) of 37.8 IU/L, an AST (6 h) of 74.4 IU/L and a BUN (6 h) of 10.2 mg/dL. It also gave a CRE (6 h) of 0.2 mg/dL, a Ca (6 h) of 10.7 mg/dL and a Cl (6 h) of 106.2 meq/L. For the same compound, the DBIL (6 h) was 0.026 mg/dL, the GLC (6 h) was 185.8 mg/dL and the IP (6 h) was 10.3 mg/dL. It also gave a K (6 h) of 4.1 meq/L, an LDH (6 h) of 69.2 IU/L and a Na (6 h) of 139.8 meq/L. The PL (6 h) was 145 mg/dL, the RALB (6 h) was 2.5 g/dL and the TBIL (6 h) was 0.046 mg/dL. For the same compound, the TC (6 h) was 75.8 mg/dL, the TG (6 h) was 78 mg/dL and the TP (6 h) was 5.4 g/dL. For the same compound, the gamma-GTP (6 h) was 1.2 IU/L, the TERMINAL_BW (9 h) was 205.2 g and the APTT (9 h) was 15.9 s. The Bas (9 h) was 0%, the Eos (9 h) was 0.8% and the Fbg (9 h) was 268 mg/dL. It also gave a Ht (9 h) of 39.5%, a Lym (9 h) of 74.6% and an MCH (9 h) of 21.3 pg. For the same compound, the MCHC (9 h) was 34.1%, the MCV (9 h) was 62.4 fL and the Mono (9 h) was 2.6%. It also gave a Neu (9 h) of 21.6%, a PT (9 h) of 12.4 s and a Plat (9 h) of 117.6 x10_4/uL. For the same compound, the RBC (9 h) was 632.8 x10_4/ul, the Ret (9 h) was 7.6% and the WBC (9 h) was 69.1 x10_2/uL. For the same compound, the KIDNEY_L (9 h) was 0.9 g, the KIDNEY_R (9 h) was 0.9 g and the KIDNEY_TOTAL (9 h) was 1.7 g. It also gave an LIVER (9 h) of 7.9 g, an ALP (9 h) of 1428 IU/L and an ALT (9 h) of 34.8 IU/L. It also gave an AST (9 h) of 67.4 IU/L, a BUN (9 h) of 10.6 mg/dL and a CRE (9 h) of 0.2 mg/dL. For the same compound, the Ca (9 h) was 10.6 mg/dL, the Cl (9 h) was 103.6 meq/L and the DBIL (9 h) was 0.02 mg/dL. For the same compound, the GLC (9 h) was 189 mg/dL, the IP (9 h) was 10.7 mg/dL and the K (9 h) was 3.6 meq/L. The LDH (9 h) was 52.8 IU/L, the Na (9 h) was 140.8 meq/L and the PL (9 h) was 146 mg/dL. It also gave an RALB (9 h) of 2.5 g/dL, a TBIL (9 h) of 0.038 mg/dL and a TC (9 h) of 80.2 mg/dL. It also gave a TG (9 h) of 53.6 mg/dL, a TP (9 h) of 5.2 g/dL and a gamma-GTP (9 h) of 1 IU/L. The TERMINAL_BW (24 h) was 212.4 g, the APTT (24 h) was 16.5 s and the Bas (24 h) was 0%. The Eos (24 h) was 1%, the Fbg (24 h) was 285.8 mg/dL and the Ht (24 h) was 38.8%. The Lym (24 h) was 73.8%, the MCH (24 h) was 21.6 pg and the MCHC (24 h) was 34.2%. It also gave an MCV (24 h) of 63.2 fL, a Mono (24 h) of 3% and a Neu (24 h) of 21.8%. For the same compound, the PT (24 h) was 12.2 s, the Plat (24 h) was 112.5 x10_4/uL and the RBC (24 h) was 614 x10_4/ul. For the same compound, the Ret (24 h) was 7.3%, the WBC (24 h) was 80.5 x10_2/uL and the KIDNEY_L (24 h) was 0.9 g. The KIDNEY_R (24 h) was 0.9 g, the KIDNEY_TOTAL (24 h) was 1.9 g and the LIVER (24 h) was 9.7 g. For the same compound, the ALP (24 h) was 1823.2 IU/L, the ALT (24 h) was 42.8 IU/L and the AST (24 h) was 71.4 IU/L. It also gave a BUN (24 h) of 14.8 mg/dL, a CRE (24 h) of 0.2 mg/dL and a Ca (24 h) of 11 mg/dL. For the same compound, the Cl (24 h) was 104.6 meq/L, the DBIL (24 h) was 0.02 mg/dL and the GLC (24 h) was 179.8 mg/dL. It also gave an IP (24 h) of 8.4 mg/dL, a K (24 h) of 4 meq/L and an LDH (24 h) of 61 IU/L. It also gave a Na (24 h) of 142.6 meq/L, a PL (24 h) of 147 mg/dL and an RALB (24 h) of 2.6 g/dL. It also gave a TBIL (24 h) of 0.032 mg/dL, a TC (24 h) of 79.8 mg/dL and a TG (24 h) of 71.6 mg/dL. It also gave a TP (24 h) of 5.5 g/dL.
